Assay results taken from patent US20240016781A1, “TREATMENT OF KRAS MUTANT CANCERS” (MEI Pharma, Inc., priority 2020, published 2024).
Where two headings read alike, the source gives them in different places.

Columns and labels:
NCI-H23 = assay: 72-hour CellTiter-Glo 2.0 growth inhibition screen (single agent, 9x9 combination dose matrix); format: cell-based; conditions: NCl-H23, Lung, 72 h
AsPC-1 = assay: as above; format: cell-based
TOV-21G = assay: as above; format: cell-based
KYSE-410 = assay: as above; format: cell-based
SW48 KRAS (G12D/+) = assay: as above; format: cell-based; conditions: for EC50: read-out: EC50;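 as to Best CI Level: inhibition effect level at which the best CI was calculated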
Huh-7 xenografts = assay: CIVO intratumoral microinjection, Huh-7 xenografts; format: in vivo; conditions: Huh-7 liver cancer model
Excerpt: FIG. 6 depicts the CIVO injection array.
CC3 is not elevated over background levels at any injection site.

[1] = Additional Single Agent Responses (inhibition, % I)
[2] = growth inhibition (GI) curve, single agent
[3] = AsPC-1, Pancreas, Additional Single Agent Responses (inhibition, % I), 72 h
[4] = AsPC-1, Pancreas, growth inhibition (GI) curve, single agent, 72 h
[5] = AsPC-1, Pancreas, growth inhibition (GI), AUC, single agent, 72 h
[6] = TOV-21G, Ovary, Additional Single Agent Responses (inhibition, % I), 72 h
[7] = TOV-21G, Ovary, growth inhibition (GI) curve, single agent, 72 h
[8] = TOV-21G, Ovary, growth inhibition (GI), AUC, single agent, 72 h
[9] = KYSE-410, Esophageal, Additional Single Agent Responses (inhibition, % I), 72 h
[10] = KYSE-410, Esophageal, growth inhibition (GI) curve, single agent, 72 h
[11] = KYSE-410, Esophageal, growth inhibition (GI), AUC, single agent, 72 h
[12] = SW48 KRAS (G12D/+), Colorectal, Additional Single Agent Responses (inhibition, % I), 72 h
[13] = SW48 KRAS (G12D/+), Colorectal, growth inhibition (GI) curve, single agent, 72 h
[14] = SW48 KRAS (G12D/+), Colorectal, growth inhibition (GI), AUC, single agent, 72 h
[15] = AsPC-1 (KRAS G12D), enhancer + MEI-522 (Voruciclib), 72 h;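 as to Best CI Level: inhibition effect level at which the best CI was calculated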
[16] = enhancer combined with MEI-522 (Voruciclib), AsPC-1 (Pancreas), 72 hours, inhibition data
[17] = TOV-21G (KRAS G13C), enhancer + MEI-522 (Voruciclib), 72 h;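 as to Best CI Level: inhibition effect level at which the best CI was calculated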
[18] = enhancer combined with MEI-522 (Voruciclib), TOV-21G (Ovary), 72 hours, inhibition data
[19] = KYSE-410 (KRAS G12C), enhancer + MEI-522 (Voruciclib), 72 h;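 as to Best CI Level: inhibition effect level at which the best CI was calculated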
[20] = enhancer combined with MEI-522 (Voruciclib), KYSE-410 (Esophageal), 72 hours, inhibition data
[21] = SW48 KRAS (G12D/+), enhancer + MEI-522 (Voruciclib), 72 h
[22] = enhancer combined with MEI-522 (Voruciclib), SW48 KRAS (G12D/+) (Colorectal), 72 hours, inhibition data

Compound: CN1CC[C@@H](c2c(O)cc(O)c3c(=O)cc(-c4ccc(C(F)(F)F)cc4Cl)oc23)[C@@H]1CO [MEI-522(Voruciclib)]
- EC50 (NCI-H23; [1]): 1130 nM
- IC50 (NCI-H23; [1]): 1180 nM
- Response Area (NCI-H23; [1]): 2.83
- Max Response (% I) (NCI-H23; Additional Single Agent Responses): 96 % I
- EC50 (NCI-H23; [2]): 1770 nM
- GI50 (NCI-H23; [2]): 1260 nM
- Response Area (NCI-H23; growth inhibition (GI), AUC, single agent): 5.00
- Max Response (% GI) (NCI-H23; growth inhibition (GI), single agent): 181 % GI
- EC50 (AsPC-1; [3]): 1330 nM
- IC50 (AsPC-1; [3]): 2320 nM
- Response Area (AsPC-1; [3]): 1.96
- Max Response (% I) (AsPC-1; AsPC-1, Pancreas, Additional Single Agent Responses, 72 h): 68 % I
- EC50 (AsPC-1; [4]): 1350 nM
- GI50 (AsPC-1; [4]): 1340 nM
- Response Area (AsPC-1; [5]): 2.86
- Max Response (% GI) (AsPC-1; AsPC-1, Pancreas, growth inhibition (GI), single agent, 72 h): 99 % GI
- EC50 (TOV-21G; [6]): 1660 nM
- IC50 (TOV-21G; [6]): 1730 nM
- Response Area (TOV-21G; [6]): 2.63
- Max Response (% I) (TOV-21G; TOV-21G, Ovary, Additional Single Agent Responses, 72 h): 95 % I
- EC50 (TOV-21G; [7]): 1980 nM
- GI50 (TOV-21G; [7]): 1570 nM
- Response Area (TOV-21G; [8]): 4.89
- Max Response (% GI) (TOV-21G; TOV-21G, Ovary, growth inhibition (GI), single agent, 72 h): 181 % GI
- EC50 (KYSE-410; [9]): 1740 nM
- IC50 (KYSE-410; [9]): 1900 nM
- Response Area (KYSE-410; [9]): 1.97
- Max Response (% I) (KYSE-410; KYSE-410, Esophageal, Additional Single Agent Responses, 72 h): 72 % I
- EC50 (KYSE-410; [10]): 1750 nM
- GI50 (KYSE-410; [10]): 1800 nM
- Response Area (KYSE-410; [11]): 2.41
- Max Response (% GI) (KYSE-410; KYSE-410, Esophageal, growth inhibition (GI), single agent, 72 h): 87 % GI
- IC50 (SW48 KRAS (G12D/+); [12]): 572 nM
- Response Area (SW48 KRAS (G12D/+); [12]): 2.81
- EC50 (SW48 KRAS (G12D/+); [12]): 463 nM
- Max Response (% I) (SW48 KRAS (G12D/+); SW48 KRAS (G12D/+), Colorectal, Additional Single Agent Responses, 72 h): 84 % I
- GI50 (SW48 KRAS (G12D/+); [13]): 428 nM
- EC50 (SW48 KRAS (G12D/+); [13]): 541 nM
- Response Area (SW48 KRAS (G12D/+); [14]): 4.36
- Max Response (% GI) (SW48 KRAS (G12D/+); SW48 KRAS (G12D/+), Colorectal, growth inhibition (GI), single agent, 72 h): 139 % GI

Compound: CN1CCN(c2ccc(OC(F)(F)F)c(Nc3ncc4c(n3)-c3c(c(C(N)=O)nn3CCO)CC4)c2)CC1 [Onvansertib]
- apoptotic cells (CC3) (Huh-7 xenografts): do not result in an increase in apoptotic cells
- Best CI (AsPC-1; [15]): 0.84
- Bliss Volume (AsPC-1; [15]): −1.25
- HSA volume (AsPC-1; [15]): −1.39
- Loewe Volume (AsPC-1; [15]): −0.75
- Synergy Score (AsPC-1; [15]): 1.41
- Response Area (AsPC-1; [3]): 2.50
- Response Area (AsPC-1; [5]): 3.48
- EC50 (AsPC-1; Homo sapiens, ASPC1, 72 h, AsPC-1, Pancreas, Additional Single Agent Responses (inhibition, % I), 72 h): 94.9 nM
- EC50 (AsPC-1; Homo sapiens, ASPC1, 72 h, AsPC-1, Pancreas, growth inhibition (GI) curve, single agent, 72 h): 82.3 nM
- IC50 (AsPC-1; Homo sapiens, ASPC1, AsPC-1, Pancreas, Additional Single Agent Responses (inhibition, % I), 72 h): 332 nM
- Emax (AsPC-1; Homo sapiens, ASPC1, AsPC-1, Pancreas, Additional Single Agent Responses, 72 h, read-out: Max Response (% I)): 60%
- GI50 (AsPC-1; Homo sapiens, ASPC1, AsPC-1, Pancreas, growth inhibition (GI) curve, single agent, 72 h): 109 nM
- Emax (AsPC-1; Homo sapiens, ASPC1, AsPC-1, Pancreas, growth inhibition (GI), single agent, 72 h, read-out: Max Response (% GI)): 84%
- Best CI (AsPC-1; [16]): 1.13
- Best CI Level (AsPC-1; [16]): 20
- Bliss Volume (AsPC-1; [16]): −1.91
- HSA volume (AsPC-1; [16]): −0.98
- Loewe Volume (AsPC-1; [16]): −0.67
- Synergy Score (AsPC-1; [16]): 0.67
- EC50 (TOV-21G; Homo sapiens, TOV21G, 72 h, TOV-21G, Ovary, Additional Single Agent Responses (inhibition, % I)): 28.1 nM
- EC50 (TOV-21G; Homo sapiens, TOV21G, 72 h, TOV-21G, Ovary, growth inhibition (GI) curve, single agent): 34.2 nM
- IC50 (TOV-21G; Homo sapiens, TOV21G, TOV-21G, Ovary, Additional Single Agent Responses (inhibition, % I), 72 h): 31.6 nM
- Emax (TOV-21G; Homo sapiens, TOV21G, TOV-21G, Ovary, Additional Single Agent Responses, 72 h, read-out: Max Response (% I)): 86%
- GI50 (TOV-21G; Homo sapiens, TOV21G, TOV-21G, Ovary, growth inhibition (GI) curve, single agent, 72 h): 26.5 nM
- Emax (TOV-21G; Homo sapiens, TOV21G, TOV-21G, Ovary, growth inhibition (GI), single agent, 72 h, read-out: Max Response (% GI)): 143%
- Best CI (TOV-21G; [17]): 0.40
- Bliss Volume (TOV-21G; [17]): 5.55
- HSA volume (TOV-21G; [17]): −0.24
- Loewe Volume (TOV-21G; [17]): −0.71
- Synergy Score (TOV-21G; [17]): 1.56
- Response Area (TOV-21G; [6]): 3.84
- Response Area (TOV-21G; [8]): 6.09
- Best CI (TOV-21G; [18]): 0.56
- Best CI Level (TOV-21G; [18]): 30
- Bliss Volume (TOV-21G; [18]): 0.52
- HSA volume (TOV-21G; [18]): 0.33
- Loewe Volume (TOV-21G; [18]): 0.43
- Synergy Score (TOV-21G; [18]): 0.98
- EC50 (KYSE-410; Homo sapiens, KYSE-410, 72 h, KYSE-410, Esophageal, Additional Single Agent Responses (inhibition, % I), 72 h): 34.9 nM
- EC50 (KYSE-410; Homo sapiens, KYSE-410, 72 h, KYSE-410, Esophageal, growth inhibition (GI) curve, single agent, 72 h): 34.7 nM
- IC50 (KYSE-410; Homo sapiens, KYSE-410, Esophageal, Additional Single Agent Responses (inhibition, % I), 72 h): 55.5 nM
- Emax (KYSE-410; Homo sapiens, KYSE-410, Esophageal, Additional Single Agent Responses, 72 h, read-out: Max Response (% I)): 65%
- GI50 (KYSE-410; Homo sapiens, KYSE-410, Esophageal, growth inhibition (GI) curve, single agent, 72 h): 43.1 nM
- Emax (KYSE-410; Homo sapiens, KYSE-410, Esophageal, growth inhibition (GI), single agent, 72 h, read-out: Max Response (% GI)): 78%
- Best CI (KYSE-410; [19]): 0.60
- Bliss Volume (KYSE-410; [19]): −1.39
- HSA volume (KYSE-410; [19]): −2.18
- Loewe Volume (KYSE-410; [19]): −2.01
- Synergy Score (KYSE-410; [19]): 0.29
- Response Area (KYSE-410; [9]): 2.89
- Response Area (KYSE-410; [11]): 3.49
- Best CI (KYSE-410; [20]): 0.68
- Bliss Volume (KYSE-410; [20]): −1.63
- HSA volume (KYSE-410; [20]): −1.72
- Loewe Volume (KYSE-410; [20]): −1.53
- Synergy Score (KYSE-410; [20]): 0.20
- Best CI Level (KYSE-410; enhancer combined with MEI-522 (Voruciclib), KYSE-410 (Esophageal), 72 hours, inhibition data, unit assumed): 20%
- EC50 (SW48 KRAS (G12D/+); Homo sapiens, SW48, 72 h, SW48 KRAS (G12D/+), Colorectal, Additional Single Agent Responses (inhibition, % I), 72 h): 14 nM
- EC50 (SW48 KRAS (G12D/+); Homo sapiens, SW48, 72 h, SW48 KRAS (G12D/+), Colorectal, growth inhibition (GI) curve, single agent, 72 h): 15.7 nM
- IC50 (SW48 KRAS (G12D/+); Homo sapiens, SW48 KRAS (G12D/+), Colorectal, Additional Single Agent Responses (inhibition, % I), 72 h): 17.8 nM
- Emax (SW48 KRAS (G12D/+); Homo sapiens, SW48 KRAS (G12D/+), Colorectal, Additional Single Agent Responses, 72 h, read-out: Max Response (% I)): 92%
- GI50 (SW48 KRAS (G12D/+); Homo sapiens, SW48 KRAS (G12D/+), Colorectal, growth inhibition (GI) curve, single agent, 72 h): 13.9 nM
- Emax (SW48 KRAS (G12D/+); Homo sapiens, SW48 KRAS (G12D/+), Colorectal, growth inhibition (GI), single agent, 72 h, read-out: Max Response (% GI)): 168%
- Response Area (SW48 KRAS (G12D/+); [12]): 3.73
- Response Area (SW48 KRAS (G12D/+); [14]): 5.57
- Best CI (SW48 KRAS (G12D/+); [21]): 0.39
- Bliss Volume (SW48 KRAS (G12D/+); [21]): 5.34
- HSA volume (SW48 KRAS (G12D/+); [21]): −1.32
- Loewe Volume (SW48 KRAS (G12D/+); [21]): 1.06
- Synergy Score (SW48 KRAS (G12D/+); [21]): 8.15
- Best CI (SW48 KRAS (G12D/+); [22]): 0.51
- Bliss Volume (SW48 KRAS (G12D/+); [22]): −0.39
- HSA volume (SW48 KRAS (G12D/+); [22]): −0.28
- Loewe Volume (SW48 KRAS (G12D/+); [22]): 0.65
- Synergy Score (SW48 KRAS (G12D/+); [22]): 2.12
- Best CI Level (SW48 KRAS (G12D/+); enhancer combined with MEI-522 (Voruciclib), SW48 KRAS (G12D/+) (Colorectal), 72 hours, inhibition data, unit assumed): 20%

Compound: CN1CC[C@@H](c2c(O)cc(O)c3c(=O)cc(-c4ccc(C(F)(F)F)cc4Cl)oc23)[C@@H]1CO [Voruciclib, (+)-trans-2-(2-Chloro-4-trifluoromethylphenyl)-5,7-dihydroxy-8-(2-hydroxymethyl-1-methylpyrrolidin-3-yl)-chromen-4-one]
- apoptotic cells (CC3) (Huh-7 xenografts): do not result in an increase in apoptotic cells
